Earlier results as cited in US20030232787A1, “Combinations of an endothelin receptor antagonist and an antiepileptic compound having pain alleviating properties or analgesic” (priority 2002, published 2003).
Square brackets hold non-standard residues; d marks the D form. Peptide text beside a SMILES is read from it.

Experiments:
[1] = tested on: rat model of diabetic neuropathy; settings: Jarvis et al. 2000; cited from earlier work
[2] = tested on: streptozotocin-induced static allodynia; settings: rat; Field et al.; cited from earlier work
[3] = tested on: mouse model of inflammation and hyperalgesia; settings: Piovezan et al. 2000; cited from earlier work

In the case of `CCCCN(CCCC)C(=O)CN1C[C@H](c2ccc3c(c2)OCO3)[C@@H](C(=O)O)[C@@H]1c1ccc(OC)cc1` [ABT-627, 2R-(4-Methoxyphenyl)-4S-(1,3-benzodioxol-5-yl)-1-(N,N-di(n-butyl)aminocarbonyl-methyl)-pyrrolidine-3R-carboxylic acid], the effect on pain [1] is listed as “attenuate pain”.

In the case of `CC(NC(=O)C(C)(Cc1c[nH]c2ccccc12)NC(=O)OCc1cc2ccccc2o1)c1ccccc1` (stereo not drawn) [[2-(1H-indol-3-yl)-1-methyl-1-(1-phenyl-ethylcarbamoyl)-ethyl]-carbamic acid benzofuran-2-ylmethyl ester], the “effect on maintenance of streptozotocin-induced static allodynia” value [2] is listed as “block the maintenance of streptozotocin-induced static allodynia”.

For `CC(C)C[C@@H]1NC(=O)[C@@H](C(C)C)NC(=O)[C@@H]2CCCN2C(=O)[C@@H](CC(=O)O)NC(=O)[C@@H](Cc2c[nH]c3ccccc23)NC1=O` [BQ-123] (cyclo(L[dW][dD]P[dV])), the effect on pain [3] is listed as “alleviate pain”.
